Results on 1 compound are retold here after patent US11856970B2, “Bacillus subtilis for animal feed” (CHR. HANSEN A/S, priority 2018, dated 2024).

For the assay, the system named is E. coli. Put plainly: Agar well diffusion, screening for inhibition of E. coli. The format is cell-based, Escherichia coli. The conditions noted are these: E. coli O147:K89 F4 H19. Here is the method: The seven pathogenic E. coli and Salmonella spp. strains were each suspended in MRD until McFarland 0.5 was obtained and 10 μL of each pathogen suspension was diluted in approximately 35 ml melted LB agar (max. 42° C.). The inoculated agar was poured into Omni Tray Single-well plates, Immuno TSP plates were attached. After drying the immune TSP plates were removed and the wells were inoculated with 5 μL overnight culture (triplicates) of Bacillus test strains. The plates were incubated aerobically at 30° C. for 48 hours. For the E. coli plates, two replicate plates were used (n=2); for the 10 Salmonella spp. plates, one replicate plate was used (n=1).
The following positioning of the Bacillus subtilis strains on the plates containing the pathogens was used:
The concentration of E. coli and Salmonella spp. in the inoculated agar was estimated to be 2.9×10^4 CFU/ml.
On the technique in general: In agar diffusion tests the substance spreads into inoculated agar from a disc or well.

`O=C(O)c1cn(C2CC2)c2cc(N3CCNCC3)c(F)cc2c1=O` [ciprofloxacin]: the “inhibition zones (FIG. 2, in words)” value was “Inhibition is also seen”.
